# Results taken from patent US8258296B2, “Crystalline antifungal compounds” (Palau Pharma, S.A., priority 2006, dated 2012).
# Legend:
# Assay type in all cases: physicochemical
# [1] = Storage stability, detection of degradation products
# Source text: (§1) Accordingly, the present subject matter relates to methods of identifying, obtaining, and purifying the various crystalline forms of (1R,2R)-7-chloro-3-[2-(2,4-difluorophenyl)-2-hydroxy-1-methyl-3-(1H-1,2,4-triazol-1-yl)propyl]quinazolin-4(3H)-one. These crystalline forms, namely Forms I-VI, were identified as six distinct crystal forms. Certain physical characteristics of these crystalline forms generated during crystallization studies, are as follows: • Form I: typically obtained by crystallizing the amorphous form using supercritical CO2 crystallization conditions. […] Diethyl ether can then be optionally added. […] Form V can best be characterized as a crystalline phase containing between about 2 and about 7% by weight of ethyl acetate and about 0.5 to about 2.5% by weight of hexane. • Form VI: typically obtained by slurrying (1R,2R)-7-chloro-3-[2-(2,4-difluorophenyl)-2-hydroxy-1-methyl-3-(1H-1,2,4-triazol-1-yl)propyl]quinazolin-4(3H)-one in aqueous ethanol or by slowly cooling a saturated aqueous ethanol solution that was seeded. This form may be obtained when the slurry comprises any other Form of (1R,2R)-7-chloro-3-[2-(2,4-difluorophenyl)-2-hydroxy-1-methyl-3-(1H-1,2,4-triazol-1-yl)propyl]quinazolin-4(3H)-one, such as, for example, the amorphous form, Form III, Form IV, Form V, or combinations thereof. […]
# [2] = Solid-form conversion on extended storage; details: storage for 3 months at 40° C. and 75% RH
# Source text: as §1
# [3] = Slurry experiment to estimate rate of conversion of Form III to Form VI (XRPD); details: slurry at 45° C. in ethanol-water (1:9), seeded with Form VI, XRPD analysis
# Procedure: Form VI may be prepared by slurrying albaconazole in aqueous ethanol or by slowly cooling a saturated aqueous ethanol solution that was seeded. In order to estimate rate of conversion, a slurry experiment of Form III was setup at 45° C. in ethanol-water (1:9), seeded with Form VI and aliquots periodically removed. Solids from the first aliquot removed after ˜3 hours were composed of only Form VI by XRPD analysis. A slow cool method was also attempted by cooling a saturated solution of albaconazole in aqueous ethanol that was seeded. Form VI solids were isolated in a 41% yield.
# [4] = Hygroscopicity characterisation
degradation products detected after storage ([1]; 6 months of storage at 25° C./60% RH),degradation products detected after storage ([1]; 6 months of storage at 30° C./65% RH),time to complete conversion of slurry to Form VI [3] [h],hygroscopicity [4],SMILES,conversion of the original form to Form IV on storage [2]
No degradation products,No degradation products,~3,,"C[C@@H](n1cnc2cc(Cl)ccc2c1=O)[C@](O)(Cn1cncn1)c1ccc(F)cc1F [Form III, (1R,2R)-7-chloro-3-[2-(2,4-difluorophenyl)-2-hydroxy-1-methyl-3-(1H-1,2,4-triazol-1-yl)propyl]quinazolin-4(3H)-one]",some but not all of the original form converts to Form IV
,,,non-hygroscopic,"C[C@@H](n1cnc2cc(Cl)ccc2c1=O)[C@](O)(Cn1cncn1)c1ccc(F)cc1F [Form VI, (1R,2R)-7-chloro-3-[2-(2,4-difluorophenyl)-2-hydroxy-1-methyl-3-(1H-1,2,4-triazol-1-yl)propyl]quinazolin-4(3H)-one]",
